In the METLIN SMRT retention time set (Domingo-Almenara et al. 2019):

Experiment: gradient 5% acetonitrile 3 min, to 50% in 2 min, to 85% in 15 min, held 3 min, 100 µL/min
Conditions: column: Zorbax Extend-C18 2.1 x 50 mm; eluents: water / acetonitrile, 0.1% formic acid
In short: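 Retention time was recorded from adduct peaks, which were picked computationally and each inspected manually. Pure standards ran in mixtures of ~100 molecules on HPLC coupled to a quadrupole time-of-flight mass spectrometer, in positive and negative ionization mode, through a Zorbax Extend-C18 column (2.1 × 50 mm, 1.8 μm) at 100 μL/min. Eluents were water and acetonitrile, each with 0.1% formic acid.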

SMILES | RP-LC retention time
CCCNC(=O)N1CCN(Cc2nc3cccnc3n2-c2ccc(F)cc2)CC1 | 604 s
Cc1ccccc1NC(=O)C1CCN(S(C)(=O)=O)c2ccccc2O1 (stereo not given) | 867 s
CC(=O)c1ccc(S(=O)(=O)N(Cc2cccs2)Cc2cccn2C)cc1 | 983 s
CC(C)C(=O)NCCc1csc(C2CCCN(C(=O)C(C)(C)C)C2)n1 (stereo not given) | 734 s
Cc1ccc(Cn2cc(-c3ccncc3)cc2C(=O)NCc2ccc(C)o2)cc1 | 734 s
CCOc1ccc(NC(=O)CSc2nnc3c4cc(-c5ccc(C)c(C)c5)nn4ccn23)cc1 | 973 s
Cc1nc(SCC(=O)O)n[nH]1 | 765 s
Cc1ccc(-c2cc(-c3nc4c5ccccc5ncn4n3)[nH]n2)c(C)c1 | 900 s
Cc1nn(CC(=O)NC2CCCCCC2)c(=O)c2nc(-c3ccccc3)sc12 | 930 s
Cc1ccc(C(=O)CC2(O)C(=O)Nc3ccc(C)cc32)cc1 (stereo not given) | 755 s
Cc1nn(C)cc1CN1CCC[C@H]1c1nc(-c2ccccc2)n[nH]1 | 580 s
Cc1cccc(NC(=O)c2cc(C)n3nccc3n2)c1C | 995 s
Cc1ccc(CNC(=O)CSc2nc3nc(C)cc(C)n3n2)cc1 | 697 s
Cn1nccc1-c1cccc(-c2noc(C3CCN(S(=O)(=O)c4ccc(Cl)cc4)CC3)n2)c1 | 1120 s
COc1cccc(-c2nc(N3CCCCC3)ncc2C(=O)O)c1 | 950 s
Cc1cc(=O)n(CC(=O)Nc2ccc(Cl)cc2)c(N2CCCC2)n1 | 672 s
COCCCNC(=O)c1cc2c(n(-c3ccc(C(C)C)cc3)c1=O)CCCC2=O | 882 s
COCc1cc(=O)n(CC(=O)Nc2ccccc2F)c(N2CCOCC2)n1 | 789 s
O=C(Nc1ccc(F)c(F)c1)c1c(O)c2cccnc2n(-c2ccccc2)c1=O | 916 s
CC(C)NC(=O)N1Cc2ccccc2OC2(CCN(C)CC2)C1 | 591 s
Cc1ccc2sc(N(Cc3ccccn3)C(=O)C3COc4ccccc4O3)nc2c1C (stereo not given) | 1250 s
Cc1ccc(C(=O)N2CCN(c3nc(CN4CCOCC4)cs3)CC2)cc1 | 651 s
COc1ccccc1-c1nc(C2CC(=O)N(c3ccc(F)cc3)C2)no1 (stereo not given) | 926 s

SMILES | RP-LC retention time
CC(C)n1nnc2ccc(-c3noc(CNC(=O)c4ccccc4)n3)cc21 | 825 s
COC(=O)C(Cc1ccccc1)NC(=O)Nc1c(-c2ccc(C)cc2)nc2ccccn12 (stereo not given) | 686 s
Cc1nnc([C@@H]2CC(F)(F)CN2C(=O)COc2ccccc2)o1 | 667 s
O=c1c(NCCN2CCCC2)nc2ccncc2n1Cc1ccccc1 | 876 s
CCn1nccc1-c1cccc(-c2noc(-c3ccc(Cl)cc3)n2)c1 | 1340 s
CCN(CC)C(=O)c1ccc(-c2nc3cc(NS(=O)(=O)c4ccc(F)c(F)c4)ccc3n2C)cc1 | 724 s
Cc1ccn(-c2ccc(N3CCN(C(=O)c4c(F)cccc4Cl)CC3)nn2)n1 | 752 s
O=C(CN1CCc2ccccc2C1C(=O)N1CCCCC1)NCc1ccc(F)cc1Cl (stereo not given) | 918 s
CCn1nc(C)c(CCN(C)C(=O)Nc2ccccc2Br)c1C | 705 s
CCOc1ccc(-n2cc(C(=O)OCC(=O)OC)c3ccccc3c2=O)cc1 | 1000 s
COc1ccccc1CNC1=NCCNC12CCN(S(=O)(=O)c1ccc(C)cc1)CC2 | 743 s
Cn1cc(-c2cc3n(n2)CCC(=O)N3CC(=O)NC2CCCCCC2)c2ccccc21 | 856 s
CC(C)C[C@H](NC(=O)C1OC1C(=O)O)C(=O)NCCCCN=C(N)N (stereo not given in full) | 591 s
Cc1cc(C)n(-c2ccnc(NCCc3cccnc3)n2)n1 | 584 s
CCc1nc2cc(N3CCCC(C(=O)Nc4ccc(OC)cc4OC)C3)cnc2nc1CC (stereo not given) | 934 s
CCN1C=C(C(=O)OCc2ccccc2C)C(C)=NS1(=O)=O | 1030 s
CCc1ccc(C(=O)N2CCC3(C2)C(=O)Nc2ccccc23)cc1 (stereo not given) | 769 s
CC(C)c1ccc(C2C(C(=O)c3ccccc3)C(=O)C(=O)N2CCCN2CCOCC2)cc1 (stereo not given) | 725 s
Cc1nn(C)cc1C(=O)Nc1c(C)n(C)n(-c2ccccc2)c1=O | 563 s
c1ccc(-c2nnc(-c3cccnc3)o2)cc1 | 666 s
O=S(=O)(NCc1ccccc1C(F)(F)F)c1c[nH]c2ncccc12 | 785 s
Cc1cc(NCCCC(=O)NC2CCCCC2)n2nc(-c3cccnc3)nc2n1 | 646 s
COC(=O)c1sccc1NC(=O)C1CCCN(c2ncnc3c2nc2n3CCCCC2)C1 (stereo not given) | 922 s

SMILES | RP-LC retention time
Cc1nn(-c2ccccc2)c(C)c1CCc1nn2c(-c3cccc(F)c3)nnc2s1 | 934 s
CCOc1ccc(NC(=O)Nc2cc(C(C)C)ccc2C)cc1 | 1160 s
CCc1ccc(CNC(=O)Cc2nnc(-c3ccc4ncccc4c3)o2)cc1 | 758 s
COc1ccc(C(=O)N2C[C@@H]3C[C@H]2C[C@@H]3NS(=O)(=O)c2ccccc2)cc1OC | 723 s
COc1cc(C(=O)N2CCN(c3cc(C)n4cnnc4n3)CC2)cc(OC)c1OC | 575 s
CCCCn1c(=O)c2ccccc2n(Cc2nc(-c3cc(OC)c(OC)c(OC)c3)no2)c1=O | 1080 s
CCC1CN(C(=O)N2CCC(C(=O)NCCN3CCCC3)CC2)c2cc(C)ccc2O1 (stereo not given) | 649 s
CCc1nc2sc(C(C)C)nn2c1S(=O)(=O)N1CCSCC1 | 962 s
Cc1cc(S(=O)(=O)N2CCCC(Cn3cnc4cccnc43)C2)ccc1Cl (stereo not given) | 866 s
C=CCn1c(=O)c2c(nc3n2CCCCN3c2ccc(OCC)cc2)n(C)c1=O | 917 s
CCCc1nc2ccc(CCC(=O)Nc3ccc(OC)c(OC)c3)cc2[nH]1 | 610 s
CCn1cc(S(=O)(=O)Nc2cc(OC)cc(OC)c2)c2cccnc21 | 817 s
CCN(CC)S(=O)(=O)c1ccc(NC(=O)c2oc3c(c2C)C(=O)CC(C)(C)C3)cc1 | 982 s
COc1ccc(CC2C(=O)Nc3ccccc32)cc1Cl (stereo not given) | 832 s
CSc1ccc(-c2nc3cnccn3c2Nc2ccc(C(=O)N3CCOCC3)cc2)cc1 | 708 s
O=C(NC(c1ccccc1)c1nnc(N2CCOCC2)o1)C1CCCCC1 (stereo not given) | 735 s
COc1cccc(Cn2nc3c(S(=O)(=O)N4CCCC4)cccn3c2=O)c1 | 814 s
CCC(CO)Nc1ncnc2c1cnn2-c1ccc(C)c(Cl)c1 (stereo not given) | 761 s
O=C(CN1C[C@H]2C[C@H](C1)[C@H]1CCCC(=O)N1C2)NCC1CCCCC1 | 612 s
CN1CCN(C(=O)C2CCN(S(=O)(=O)c3cc(-c4noc(C5CCC5)n4)cs3)CC2)CC1 | 672 s
CCCNc1cc(N2CCC(CCC(=O)N3CCCN(c4ncccn4)CC3)CC2)ncn1 | 573 s
CCN1CCN(CCNC(=O)CCC(=O)N2CC3CCCN3c3ccccc32)CC1 (stereo not given) | 561 s
CNC(=O)C1CCCN(c2nc3ncn(CC(=O)NCc4ccccc4Cl)c(=O)c3s2)C1 (stereo not given) | 664 s

SMILES | RP-LC retention time
CCNC(=O)NC1CCN(C(=O)C2CCC2)C1 (stereo not given) | 578 s
C[C@H]1C2Cc3ccc(O)cc3[C@@]1(C)CCN2CC1CC1 | 669 s
CC(C)c1ccc(-c2csc(Nc3ccc(S(N)(=O)=O)cc3)n2)cc1 | 1010 s
Cc1c2cnn(CC(=O)N3CCN(c4ccccn4)CC3)c(=O)c2c(C)n1Cc1ccccc1F | 650 s
COc1ccc(N(Cc2nnc3n2CCCCC3)C(=O)Nc2ccccc2OC)cc1 | 772 s
Cc1cc(C)cc(NC(=O)C2CC(=O)N(CCc3c[nH]c4ccc(F)cc34)C2)c1 (stereo not given) | 889 s
CCn1cc(-c2nc(CC(=O)Nc3cc(F)ccc3F)cs2)c2cccnc21 | 1020 s
Cc1ccc(Nc2nc(C)cc(N3CCN(C(=O)c4ccc(Br)o4)CC3)n2)cc1 | 715 s
COc1cccc(NC(=O)C2CCN(S(=O)(=O)c3cc(C(=O)N(C)C)cs3)CC2)c1 | 760 s
Cc1ccc(C(C)NC(=O)c2cn3ccncc3n2)c(C)c1 (stereo not given) | 787 s
Cc1cc(N2CCN(C)CC2)nc2ccc(NC(=O)Nc3ccc(Br)cc3)cc12 | 609 s
CC(C)CN1CCN(S(=O)(=O)c2ccc(-c3nnc(C(C)C)o3)o2)CC1 | 652 s
Cc1cccc(NC(=O)C2CC(=O)N(c3ccc4oc(C)nc4c3)C2)c1 (stereo not given) | 708 s
CCn1nc(CNC(=O)c2ccc3c(c2)OCO3)c2ccccc21 | 804 s
COc1ccc(Cl)c2c(=O)c3c([nH]c12)CCN(CC(=O)Nc1cc(F)ccc1F)C3 | 625 s
COc1ccccc1CCC(=O)N1CCn2c(C)nnc2C1 | 607 s
Cc1cc(-c2nnc(-c3ccc(F)cc3)o2)c(C)n1CC(=O)Nc1cccc(F)c1 | 987 s
Cc1ccc2[nH]cc(CCN3CC(C(=O)Nc4nnc(C)s4)CC3=O)c2c1 (stereo not given) | 785 s
CCCn1ncc(N2CCC(C(=O)N3CCN(CC)CC3)CC2)cc1=O | 567 s
CCOC(=O)CSc1nnc(NC(=O)COc2ccccc2)s1 | 798 s
Fc1ccc(-c2nnc(Cc3nc(-c4cccnc4)no3)o2)cc1 | 747 s
